Structures can show the parent of a compound that is named as a salt. Where two headings read alike, the source gives them in different places.
Columns and labels:
[1] = biological target: rh-AChE (Homo sapiens, UniProt P22303); test: biochemical
[2] = biological target: rh-BuChE (Homo sapiens, UniProt P06276); test: IC50 rh-BuChE; assay type: biochemical
[3] = biological target: T1, erythrocyte h-AChE (Homo sapiens, UniProt P22303); test: IC50 erythrocyte h-AChE; assay type: biochemical
T1 construct: from tissue; host or cells: human erythrocytes
T1 sequence (P22303 32-617 isoform P22303-2 limits assumed): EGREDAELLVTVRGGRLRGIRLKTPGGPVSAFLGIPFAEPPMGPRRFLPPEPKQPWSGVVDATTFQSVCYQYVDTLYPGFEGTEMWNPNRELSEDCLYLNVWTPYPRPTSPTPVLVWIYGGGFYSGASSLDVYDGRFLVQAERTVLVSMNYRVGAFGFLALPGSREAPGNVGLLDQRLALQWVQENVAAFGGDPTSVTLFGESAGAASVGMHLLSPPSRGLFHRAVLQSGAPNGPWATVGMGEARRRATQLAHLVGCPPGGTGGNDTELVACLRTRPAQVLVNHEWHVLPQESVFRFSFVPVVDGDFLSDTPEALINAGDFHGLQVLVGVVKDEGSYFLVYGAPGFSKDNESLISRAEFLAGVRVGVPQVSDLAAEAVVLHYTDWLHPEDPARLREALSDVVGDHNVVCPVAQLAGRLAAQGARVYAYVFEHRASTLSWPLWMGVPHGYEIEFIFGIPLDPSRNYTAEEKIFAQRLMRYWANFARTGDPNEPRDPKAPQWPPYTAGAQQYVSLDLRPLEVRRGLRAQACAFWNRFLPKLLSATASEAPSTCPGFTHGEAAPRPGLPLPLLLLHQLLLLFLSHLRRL

[4] = read-out: IC50 erythrocyte h-AChE

Sequence of rh-AChE (P22303 32-614): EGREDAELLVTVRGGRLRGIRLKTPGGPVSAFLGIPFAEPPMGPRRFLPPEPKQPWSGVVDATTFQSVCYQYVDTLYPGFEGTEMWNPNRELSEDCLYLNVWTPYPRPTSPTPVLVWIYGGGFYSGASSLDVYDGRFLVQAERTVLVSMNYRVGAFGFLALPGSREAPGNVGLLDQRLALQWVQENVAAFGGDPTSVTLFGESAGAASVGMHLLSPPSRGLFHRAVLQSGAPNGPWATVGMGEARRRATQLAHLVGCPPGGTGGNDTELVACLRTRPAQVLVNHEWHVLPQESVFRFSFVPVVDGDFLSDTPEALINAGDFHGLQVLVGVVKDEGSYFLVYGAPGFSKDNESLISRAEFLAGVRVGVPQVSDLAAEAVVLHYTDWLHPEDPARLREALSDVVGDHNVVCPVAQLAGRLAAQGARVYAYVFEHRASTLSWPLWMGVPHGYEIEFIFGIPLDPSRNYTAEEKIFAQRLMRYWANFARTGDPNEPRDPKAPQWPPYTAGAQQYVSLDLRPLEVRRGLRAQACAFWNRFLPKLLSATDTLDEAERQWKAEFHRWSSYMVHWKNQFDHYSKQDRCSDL
Sequence of rh-BuChE (P06276 29-602): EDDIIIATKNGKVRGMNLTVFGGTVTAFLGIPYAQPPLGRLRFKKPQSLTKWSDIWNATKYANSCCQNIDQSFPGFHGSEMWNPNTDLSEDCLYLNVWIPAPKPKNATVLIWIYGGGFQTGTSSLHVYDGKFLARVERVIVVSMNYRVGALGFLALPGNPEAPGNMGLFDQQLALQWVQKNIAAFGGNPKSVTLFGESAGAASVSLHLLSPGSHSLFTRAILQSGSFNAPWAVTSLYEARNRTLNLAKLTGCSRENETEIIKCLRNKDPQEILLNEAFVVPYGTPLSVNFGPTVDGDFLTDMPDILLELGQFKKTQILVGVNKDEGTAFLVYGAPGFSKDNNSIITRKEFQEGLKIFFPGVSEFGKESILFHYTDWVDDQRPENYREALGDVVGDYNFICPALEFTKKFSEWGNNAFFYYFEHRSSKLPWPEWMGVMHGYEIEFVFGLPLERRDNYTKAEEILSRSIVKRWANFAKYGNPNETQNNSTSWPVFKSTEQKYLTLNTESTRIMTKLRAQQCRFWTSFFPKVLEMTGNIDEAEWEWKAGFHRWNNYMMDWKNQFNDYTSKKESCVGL

Row | SMILES | IC50 ([1]; read-out: IC50 rh-AChE) [nM] | IC50 ([2]; read-out: IC50 rh-BuChE) [nM] | further results
1 | Nc1c2c(nc3cc(Cl)ccc13)CC1C=C(CCCCO)CC2C1 (centres unmarked) [HUP 30, 4-(12-Amino-3-chloro-6,7,10,11-tetrahydro-7,11-methanocycloocta[b]quinolin-9-yl)butan-1-ol] | 22.4 ± 1.5 | 343 ± 43 | IC50 [3, 4]: 50.1 nM
2 | CS(=O)(=O)OCCC1=CC2Cc3nc4cc(Cl)ccc4c(N)c3C(C1)C2 (centres unmarked) [HUP 13, 2-(12-Amino-3-chloro-6,7,10,11-tetrahydro-7,11-methanocycloocta[b]quinolin-9-yl) Ethyl Methanesulfonate] | 8.5 ± 1.1 | 415 ± 97 | 
3 | NNCCC1=CC2Cc3nc4cc(Cl)ccc4c(N)c3C(C1)C2 (centres unmarked) [HUP 14, 3-Chloro-9-(2-hydrazinoethyl)-6,7,10,11-tetrahydro-7,11-methanocyclo octa[b]quinolin-12-amine Ditrifluoroacetic Acid] | 9.5 ± 2.7 |  | IC50 [2]: 668 ± 110 nM
4 | C=CC1=CC2Cc3nc4cc(Cl)ccc4c(N)c3C(C1)C2 (centres unmarked) [HUP 3, 3-Chloro-9-vinyl-6,7,10,11-tetrahydro-7,11-methanocycloocta[b]quinolin-12-amine Trifluoroacetic Acid] | 1.32 ± 0.17 | 180 ± 13 | IC50 [3, 4]: 405 nM
5 | NC(=O)OCCC1=CC2Cc3nc4cc(Cl)ccc4c(N)c3C(C1)C2 (centres unmarked) [HUP 17, 2-(12-Amino-3-chloro-6,7,10,11-tetrahydro-7,11-methanocycloocta[b]quinolin-9-yl)ethyl Carbamate Trifluoroacetic Acid] | 18.5 ± 2.2 | 413 ± 40 | 
6 | [N-]=[N+]=NCCCCC1=CC2Cc3nc4cc(Cl)ccc4c(N)c3C(C1)C2 (centres unmarked) [HUP 32, 9-(4-Azidobutyl)-3-chloro-6,7,10,11-tetrahydro-7,11-methanocycloocta[b]quinolin-12-amine] | 13.1 ± 4.7 | 260 ± 12 | IC50 [3, 4]: 68.1 nM
7 | Nc1c2c(nc3cc(Cl)ccc13)CC1C=C(CCNO)CC2C1 (centres unmarked) [HUP 15, 3-Chloro-9-[2-(hydroxyamino)ethyl]-6,7,10,11-tetrahydro-7,11-methano cycloocta[b]quinolin-12-amine Ditrifluoroacetic Acid] | 18.5 ± 2.2 |  | 
8 | C=CC(=O)OCCC1=CC2Cc3nc4cc(Cl)ccc4c(N)c3C(C1)C2 (centres unmarked) [HUP 18, 2-(12-Amino-3-chloro-6,7,10,11-tetrahydro-7,11-methanocycloocta[b]quinolin-9-yl)ethyl Acrylate] | 20.4 ± 4.6 | 207 ± 16 | IC50 [3, 4]: 129 nM
9 | COc1cc2c(cc1OC)C(c1ccccc1)N(CCCc1cn(CCCCC3=CC4Cc5nc6cc(Cl)ccc6c(N)c5C(C3)C4)nn1)CC2 (centres unmarked) [HUP32-PIQ3, 3-Chloro-9-(4-{4-[3-(6,7-dimethoxy-1-phenyl-3,4-dihydroisoquinolin-2(1H)-yl)propyl]-1H-1,2,3-triazol-1-yl}butyl)-6,7,10,11-tetrahydro-7,11-methanocycloocta[b]quinolin-12-amine Ditrifluoroacetic Acid] | 0.61 ± 0.1 | 11.4 ± 0.6 | 
10 | CN(C)CCC1=CC2Cc3nc4cc(Cl)ccc4c(N)c3C(C1)C2 (centres unmarked) [HUP 21, 3-Chloro-9-[2-(dimethylamino)ethyl]-6,7,10,11-tetrahydro-7,11-methano cycloocta[b]quinolin-12-amine Ditrifluoroacetic Acid] | 97 ± 10 |  | IC50 [2]: 2910 nM
11 | CCOC(=O)C(CCC1=CC2Cc3nc4cc(Cl)ccc4c(N)c3C(C1)C2)C(=O)OCC (centres unmarked) [HUP 27, Diethyl[2-(12-Amino-3-chloro-6,7,10,11-tetrahydro-7,11-methanocycloocta[b]quinolin-9-yl)ethyl]malonate] | 6.09 ± 0.42 |  | IC50 [2]: 319 ± 2 nM; IC50 [3]: 46.4 nM
12 | Nc1c2c(nc3cc(Cl)ccc13)CC1C=C(CCI)CC2C1 (centres unmarked) [HUP 7, 3-Chloro-9-(2-iodoethyl)-6,7,10,11-tetrahydro-7,11-methanocycloocta[b]quinolin-12-amine] | 2.7 ± 0.82 | 141 ± 7 | 
13 | Nc1c2c(nc3cc(Cl)ccc13)CC1C=C(CCn3cc(CO)nn3)CC2C1 (centres unmarked) [HUP 23, {1-[2-(12-Amino-3-chloro-6,7,10,11-tetrahydro-7,11-methanocycloocta[b]quinolin-9-yl)ethyl]-1H-1,2,3-triazol-4-yl}methanol Trifluoroacetic Acid] | 210 ± 28 |  | 
14 | Nc1c2c(nc3cc(Cl)ccc13)CC1C=C(CCF)CC2C1 (centres unmarked) [HUP 10, 3-Chloro-9-(2-fluoroethyl)-6,7,10,11-tetrahydro-7,11-methanocycloocta[b]quinolin-12-amine] | 4.16 ± 0.79 | 522 ± 120 | 
15 | CN(C)C(=O)CC1=CC2Cc3nc4cc(Cl)ccc4c(N)c3C(C1)C2 (centres unmarked) [HUP 19, 2-(12-Amino-3-chloro-6,7,10,11-tetrahydro-7,11-methanocycloocta[b]quinolin-9-yl)-N,N-dimethylacetamide Trifluoroacetic Acid] | 26.3 ± 1.7 | 2760 | 
16 | [N-]=[N+]=NCCC1=CC2Cc3nc4cc(Cl)ccc4c(N)c3C(C1)C2 (centres unmarked) [HUP 12, 9-(2-Azidoethyl)-3-chloro-6,7,10,11-tetrahydro-7,11-methanocycloocta[b]quinolin-12-amine] | 5.56 ± 0.82 | 522 ± 120 | 

Row | SMILES | IC50 ([1]; read-out: IC50 rh-AChE) [nM] | IC50 ([2]; read-out: IC50 rh-BuChE) [nM] | further results
17 | COC(=O)c1cn(CCC2=CC3Cc4nc5cc(Cl)ccc5c(N)c4C(C2)C3)nn1 (centres unmarked) [HUP 22, Methyl 1-[2-(12-amino-3-chloro-6,7,10,11-tetrahydro-7,11-methanocycloocta[b]quinolin-9-yl)ethyl]-1H-1,2,3-triazole-4-carboxylate] | 130 ± 15 |  | 
18 | Nc1c2c(nc3cc(Cl)ccc13)CC1C=C(CCCCn3cc(COC(=O)C(F)(F)F)nn3)CC2C1 (centres unmarked) [HUP 35, {1-[4-(12-Amino-3-chloro-6,7,10,11-tetrahydro-7,11-methanocycloocta[b]quinolin-9-yl)butyl]-1H-1,2,3-triazol-4-yl}methyl Trifluoroacetate] | 34.6 ± 2.6 |  | IC50 [3, 4]: 69.8 nM
19 | Nc1c2c(nc3cc(Cl)ccc13)CC1C=C(CC(=O)O)CC2C1 (centres unmarked) [HUP 11, 12-Amino-3-chloro-9-carboxymethyl-6,7,10,11-tetrahydro-7,11 methanocycloocta[b]quinoline Hydrochloride] |  |  | IC50 [1]: 5.3 ± 1.1 nM
20 | Nc1c2c(nc3ccccc13)CC1C=C(CCCCn3cc(CO)nn3)CC2C1 (centres unmarked) [HUP 38, {1-[4-(12-Amino-6,7,10,11-tetrahydro-7,11-methanocycloocta[b]quinolin-9-yl)butyl]-1H-1,2,3-triazol-4-yl}methanol Trifluoroacetic Acid] | 94.1 ± 2.8 | 357 ± 16 | 
21 | C[N+](C)(C)CCC1=CC2Cc3nc4cc(Cl)ccc4c(N)c3C(C1)C2 (centres unmarked) [HUP 25, 2-(12-Amino-3-chloro-6,7,10,11-tetrahydro-7,11-methanocycloocta[b]quinolin-9-yl)-N,N,N-trimethylethanaminium Ditrifluoroacetic Acid] | 262 ± 22 |  | 
22 | NC(=O)CC1=CC2Cc3nc4cc(Cl)ccc4c(N)c3C(C1)C2 (centres unmarked) [HUP 20, 2-(12-Amino-3-chloro-6,7,10,11-tetrahydro-7,11-methanocycloocta[b]quinolin-9-yl)acetamide Trifluoroacetic Acid] | 29.3 ± 3.7 |  | 
23 | C=C1c2nc3cc(Cl)ccc3c(N)c2C2CC(CCCCO)=CC1C2 (centres unmarked) [HUP 37, 4-(12-Amino-3-chloro-6-methylene-6,7,10,11-tetrahydro-7,11-methanocycloocta[b]quinolin-9-yl)butan-1-ol Trifluoroacetic Acid] | 256 ± 34 |  | 
24 | N#CCCC1=CC2Cc3nc4cc(Cl)ccc4c(N)c3C(C1)C2 (centres unmarked) [HUP 8, 3-(12-Amino-3-chloro-6,7,10,11-tetrahydro-7,11-methanocycloocta[b]quinolin-9-yl)propanenitrile Trifluoroacetic Acid] | 3.15 ± 0.42 | 514 ± 58 | 
25 | CS(=O)(=O)OCCC1=CC2Cc3nc4ccccc4c(N)c3C(C1)C2 (centres unmarked) [HUP 39, 2-(12-Amino-6,7,10,11-tetrahydro-7,11-methanocycloocta[b]quinolin-9-yl) Ethyl Methanesulfonate] | 149 ± 6 | 171 ± 4 | 
26 | COc1cc2c(cc1OC)C(c1ccccc1)N(CCCCc1cn(CCCCC3=CC4Cc5nc6cc(Cl)ccc6c(N)c5C(C3)C4)nn1)CC2 (centres unmarked) [HUP32-PIQ4, 3-Chloro-9-(4-{4-[4-(6,7-dimethoxy-1-phenyl-3,4-dihydroisoquinolin-2(1H)-yl)butyl]-1H-1,2,3-triazol-1-yl}butyl)-6,7,10,11-tetrahydro-7,11-methanocycloocta[b]quinolin-12-amine Ditrifluoroacetic Acid] | 0.78 ± 0.1 | 9.5 ± 0.6 | 
27 | COc1cc2c(cc1OC)C(c1ccccc1)N(Cc1cn(CCCCC3=CC4Cc5nc6cc(Cl)ccc6c(N)c5C(C3)C4)nn1)CC2 (centres unmarked) [HUP32-PIQ1, 3-Chloro-9-(4-{4-[(6,7-dimethoxy-1-phenyl-3,4-dihydroisoquinolin-2(1H)-yl)methyl]-1H-1,2,3-triazol-1-yl}butyl)-6,7,10,11-tetrahydro-7,11-methanocycloocta[b]quinolin-12-amine Ditrifluoroacetic Acid] | 3.31 ± 0.2 | 20.6 ± 0.2 | 
28 | CC(C)(C)OC(=O)ON(CCC1=CC2Cc3nc4cc(Cl)ccc4c(N)c3C(C1)C2)C(=O)OC(C)(C)C (centres unmarked) [HUP 16, Tert-butyl[2-(12-amino-3-chloro-6,7,10,11-tetrahydro-7,11-methanocycloocta[b]quinolin-9-yl)ethyl][(tert-butoxycarbonyl)oxy]carbamate] | 14.8 ± 3.2 | 421 ± 72 | 
29 | C=C1c2nc3cc(Cl)ccc3c(N)c2C2CC(CCCC(=O)OCC)=CC1C2 (centres unmarked) [HUP 36, Ethyl 4-(12-Amino-3-chloro-6-methylene-6,7,10,11-tetrahydro-7,11-methanocycloocta[b]quinolin-9-yl)butanoate] | 90.6 ± 8.4 |  | 
30 | CC(=O)OCCC1=CC2Cc3nc4cc(Cl)ccc4c(N)c3C(C1)C2 (centres unmarked) [HUP 4, 2-(12-Amino-3-chloro-6,7,10,11-tetrahydro-7,11-methanocycloocta[b]quinolin-9-yl)ethyl Acetate] | 1.44 ± 0.18 |  | IC50 [3, 4]: 12 nM
31 | Nc1c2c(nc3cc(Cl)ccc13)CC1C=C(CCC(CO)CO)CC2C1 (centres unmarked) [HUP 28, 2-[2-(12-Amino-3-chloro-6,7,10,11-tetrahydro-7,11-methanocycloocta[b]quinolin-9-yl)ethyl]propane-1,3-diol Trifluoroactic Acid] | 24.7 ± 1.2 |  | IC50 [3, 4]: 40.2 nM

— patent US9040506B2, “7,11-methanocycloocta [B] quinoline derivative as highly functionalizable acetylcholinesterase inhibitors” (priority 2010, dated 2015)
